For series [1], the system named is several human cancer cell lines. The conditions noted are these: cited from earlier work.
The target of series [2] is T1, endogenous PPARγ (Homo sapiens, UniProt P37231).
T1 construct: endogenous PPARγ was successfully enriched and quantified from the DMSO-treated Caco-2 cells; endogenous in cells; host or cells: Caco-2
In words: Targeted competitive proteomics of endogenous PPARγ in Caco-2 cells. The format is cell-based. The conditions noted are these: Caco-2 cells treated in situ with 20 μM, lysate then 10 μM 24c; n=6. How it is done:
On the basis of the reported interaction between deoxyelephantopin and PPARγ and because MCF7 cells are known to express very low levels of this protein, we investigated in a separate experiment whether deoxyelephantopin indeed covalently binds PPARγ. The recombinant transcription factor was spiked into MCF7 lysates to 30 nM final concentration and successfully enriched by the methacrylate ester probe 24c, as evidenced from LC–MS/MS-based label-free quantification (LFQ)[48]. […] Gratifyingly, endogenous PPARγ was successfully enriched and quantified from the DMSO-treated Caco-2 cells, whereas DEP pretreatment efficiently competed PPARγ enrichment (>95%; Fig. 7a). […]
Figure 7 Identification of PPARγ as target of deoxyelephantopin and screening of DEP derivatives as PPARγ antagonists. (a) Quantification of endogenous PPARγ enriched from Caco-2 cells using 10 μM 24c following in situ treatment with DEP (20 μM) or DMSO (normalized LFQ values±s.d. are shown; n=6). […] Quantification of fluorescence intensity in the competitive screening for PPARγ antagonists (bottom; values±s.d. are shown; n=3).
Samples were analyzed by LC-MS/MS (see below) and the MS data was processed with […]
Samples were analyzed by LC-MS/MS (see below) using inclusion lists containing m/z and charge of the expected peptides of indicated proteins (see Figure 6c γ . was processed with MaxQuant (see below). […]

Bounds are passed on as bounds.

T1 sequence (P37231 29-505 limits assumed): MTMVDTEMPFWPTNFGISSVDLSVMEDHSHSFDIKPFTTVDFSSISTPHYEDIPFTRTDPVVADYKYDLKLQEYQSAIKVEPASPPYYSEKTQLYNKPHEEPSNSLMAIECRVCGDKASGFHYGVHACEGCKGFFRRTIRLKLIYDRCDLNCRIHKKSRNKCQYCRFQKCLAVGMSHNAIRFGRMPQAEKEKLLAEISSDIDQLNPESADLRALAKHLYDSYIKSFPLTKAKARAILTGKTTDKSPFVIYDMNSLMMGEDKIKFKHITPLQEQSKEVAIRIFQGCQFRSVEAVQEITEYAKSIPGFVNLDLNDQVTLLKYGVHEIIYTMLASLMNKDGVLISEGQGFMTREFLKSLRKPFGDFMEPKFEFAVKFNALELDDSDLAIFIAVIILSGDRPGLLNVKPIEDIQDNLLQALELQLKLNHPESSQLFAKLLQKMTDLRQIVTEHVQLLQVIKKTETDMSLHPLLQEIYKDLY

As for `C=C(C)C(=O)O[C@H]1CC2=C[C@@H](C/C(C)=C/[C@H]3OC(=O)C(=C)[C@H]13)OC2=O` [deoxyelephantopin], in series [1], the cytotoxic doses was 0.5 to 2 µg/mL. Also, the “competition of endogenous PPARγ enrichment by 24c” value in series [2] is reported as above 95%.

Source of the values: PMC4992173, “Divergent synthesis and identification of the cellular targets of deoxyelephantopins” (Nature Communications, 2016).
